Reference: patent US9487516B2, “Antibacterial oxadiazolone derivatives” (priority 2013, dated 2016)
Converted amounts (≈) assume the structure as drawn.

Columns and labels:
Assay in all cases: Bacterial growth minimal inhibitory concentration (microdilution, cation-adjusted Mueller-Hinton Broth)
Type in all cases: cell-based
[1] = system: Acinetobacter baumanii T6474; conditions: Acinetobacter baumannii, multiply-resistant strain (in particular quinolone-resistant)
Experimental: (§1) Minimal Inhibitory Concentrations (MICs; mg/L) were determined in cation-adjusted MuellerHinton Broth by a microdilution method following the description given in “Methods for Dilution Antimicrobial Susceptibility Tests for Bacteria that Grow Aerobically”, Approved standard, 7th ed., Clinical and Laboratory Standards Institute (CLSI) Document M7-A7, Wayne, Pa., USA, 2006.
(§2) All Example compounds were tested against several Gram positive and Gram negative bacteria. […] Staphylococcus aureus A798, Enterococcus faecium A949 and Acinetobacter baumanii T6474 are multiply-resistant strains (in particular quinolone-resistant), while Moraxella catarrhalis A894 is a quinolone-sensitive strain and Staphylococcus aureus ATCC29213 is a methicillin-sensitive and quinolone-sensitive strain.

[2] = system: Enterococcus faecium A949; conditions: multiply-resistant strain (in particular quinolone-resistant), read-out: MIC for E. faecium A949
Experimental: as §1, §2

[3] = system: Moraxella catarrhalis A894; conditions: quinolone-sensitive strain
Experimental: as §1, §2

[4] = system: Staphylococcus aureus A798; conditions: multiply-resistant strain (in particular quinolone-resistant), read-out: MIC for S. aureus A798
Experimental: as §1, §2

[5] = system: Staphylococcus aureus ATCC29213; conditions: methicillin-sensitive and quinolone-sensitive strain, read-out: MIC for S. aureus ATCC29213
Experimental: as §1, §2

SMILES | MIC [1] [µg/mL] | MIC [2] [µg/mL] | MIC [3] [µg/mL] | MIC [4] [µg/mL] | MIC [5] [µg/mL]
O=C1CSc2ccc(-n3nc(CCCN[C@@H]4Cn5c(=O)cnc6ccc(F)c4c65)oc3=O)nc2N1 [Example 18, (S)-7-fluoro-6-{3-[5-oxo-4-(3-oxo-3,4-dihydro-2H-pyrido[3,2-b][1,4]-thiazin-6-yl)-4,5-dihydro-[1,3,4]oxadiazol-2-yl]-propylamino}-5,6-dihydro-pyrrolo[1,2,3-de]quinoxalin-3-one] | 0.25 (≈ 0.505 µM) | 0.25 (≈ 0.505 µM) | ≤ 0.016 | 0.063 (≈ 0.127 µM) | 0.031 (≈ 0.0626 µM)
CCSc1ccc(-n2nc(CCCN[C@H]3Cn4c(=O)ccc5ccc(F)c3c54)oc2=O)cc1 [Example 32, (R)-1-{3-[4-(4-ethylsulfanyl-phenyl)-5-oxo-4,5-dihydro-[1,3,4]oxadiazol-2-yl]-propylamino}-9-fluoro-1,2-dihydro-pyrrolo[3,2,1-ij]quinolin-4-one] | 0.5 (≈ 1.07 µM) | 0.5 (≈ 1.07 µM) | 0.5 (≈ 1.07 µM) | 0.25 (≈ 0.536 µM) | 0.063 (≈ 0.135 µM)
O=C1COc2ccc(-n3nc(CCCN[C@@H]4Cn5c(=O)cnc6ccc(F)c4c65)oc3=O)cc2N1 [Example 10, (S)-7-fluoro-6-{3-[5-oxo-4-(3-oxo-3,4-dihydro-2H-benzo[1,4]oxazin-6-yl)-4,5-dihydro-[1,3,4]oxadiazol-2-yl]-propylamino}-5,6-dihydro-pyrrolo[1,2,3-de]quinoxalin-3-one] | 0.25 (≈ 0.523 µM) | 0.5 (≈ 1.05 µM) | ≤ 0.016 | 0.063 (≈ 0.132 µM) | 0.031 (≈ 0.0648 µM)
O=C1COc2ccc(-n3nc(CCCN[C@H]4Cn5c(=O)ccc6ccc(F)c4c65)oc3=O)cc2N1 [Example 12, (R)-9-fluoro-1-{3-[5-oxo-4-(3-oxo-3,4-dihydro-2H-benzo[1,4]oxazin-6-yl)-4,5-dihydro-[1,3,4]oxadiazol-2-yl]-propylamino}-1,2-dihydro-pyrrolo[3,2,1-ij]quinolin-4-one] | 0.25 (≈ 0.524 µM) | 0.25 (≈ 0.524 µM) | ≤ 0.016 | 0.031 (≈ 0.0649 µM) | 0.031 (≈ 0.0649 µM)
CCSc1ccc(-n2nc(CCCN[C@@H]3Cn4c(=O)cnc5ccc(F)c3c54)oc2=O)cc1 [Example 33, (S)-6-{3-[4-(4-ethylsulfanyl-phenyl)-5-oxo-4,5-dihydro-[1,3,4]oxadiazol-2-yl]-propylamino}-7-fluoro-5,6-dihydro-pyrrolo[1,2,3-de]quinoxalin-3-one] | 0.25 (≈ 0.535 µM) | 0.5 (≈ 1.07 µM) | 0.5 (≈ 1.07 µM) | 0.25 (≈ 0.535 µM) | 0.031 (≈ 0.0663 µM)
O=C1CSc2ccc(-n3nc(CCCN[C@H]4Cn5c(=O)cnc6ccc(F)c4c65)oc3=O)cc2N1 [Example 21, (R)-7-fluoro-6-{3-[5-oxo-4-(3-oxo-3,4-dihydro-2H-benzo[1,4]-thiazin-6-yl)-4,5-dihydro-[1,3,4]oxadiazol-2-yl]-propylamino}-5,6-dihydro-pyrrolo[1,2,3-de]quinoxalin-3-one] | ≤ 0.016 | 0.25 (≈ 0.506 µM) | 0.063 (≈ 0.127 µM) | ≤ 0.016 | ≤ 0.016
O=C1COc2ccc(-n3nc(CCCN[C@H]4Cn5c(=O)cnc6cccc4c65)oc3=O)nc2N1 [Example 36, (R)-6-{3-[5-oxo-4-(3-oxo-3,4-dihydro-2H-pyrido[3,2-b][1,4]oxazin-6-yl)-4,5-dihydro-[1,3,4]oxadiazol-2-yl]-propylamino}-5,6-dihydro-pyrrolo[1,2,3-de]quinoxalin-3-one] | 4 (≈ 8.67 µM) | 8 (≈ 17.3 µM) | 2 (≈ 4.33 µM) | 4 (≈ 8.67 µM) | 4 (≈ 8.67 µM)
O=C1COc2ccc(-n3nc(CCCN[C@@H]4Cn5c(=O)cnc6cccc4c65)oc3=O)nc2N1 [Example 35, (S)-6-{3-[5-oxo-4-(3-oxo-3,4-dihydro-2H-pyrido[3,2-b][1,4]oxazin-6-yl)-4,5-dihydro-[1,3,4]oxadiazol-2-yl]-propylamino}-5,6-dihydro-pyrrolo[1,2,3-de]quinoxalin-3-one] | 2 (≈ 4.33 µM) | 4 (≈ 8.67 µM) | 0.5 (≈ 1.08 µM) | 1 (≈ 2.17 µM) | 0.5 (≈ 1.08 µM)
O=C1CSc2ccc(-n3nc(CCCN[C@@H]4Cn5c(=O)cnc6ccc(F)c4c65)oc3=O)cc2N1 [Example 20, (S)-7-fluoro-6-{3-[5-oxo-4-(3-oxo-3,4-dihydro-2H-benzo[1,4]-thiazin-6-yl)-4,5-dihydro-[1,3,4]oxadiazol-2-yl]-propylamino}-5,6-dihydro-pyrrolo[1,2,3-de]quinoxalin-3-one] | ≤ 0.016 | 0.25 (≈ 0.506 µM) | 0.063 (≈ 0.127 µM) | ≤ 0.016 | ≤ 0.016
CCOc1ccc(-n2nc(CCCN[C@@H]3Cn4c(=O)cnc5ccc(F)c3c54)oc2=O)cc1 [Example 30, (S)-6-{3-[4-(4-ethoxy-phenyl)-5-oxo-4,5-dihydro-[1,3,4]oxadiazol-2-yl]-propylamino}-7-fluoro-5,6-dihydro-pyrrolo[1,2,3-de]quinoxalin-3-one] | 4 (≈ 8.86 µM) | 8 (≈ 17.7 µM) | 8 (≈ 17.7 µM) | 4 (≈ 8.86 µM) | 1 (≈ 2.22 µM)
O=C1COc2ccc(-n3nc(CCCN[C@@H]4Cn5c(=O)ccc6ccc(F)c4c65)oc3=O)nc2N1 [Example 8, (S)-9-fluoro-1-{3-[5-oxo-4-(3-oxo-3,4-dihydro-2H-pyrido[3,2-b][1,4]oxazin-6-yl)-4,5-dihydro-[1,3,4]oxadiazol-2-yl]-propylamino}-1,2-dihydro-pyrrolo[3,2,1-ij]quinolin-4-one] | 0.5 (≈ 1.05 µM) | 0.5 (≈ 1.05 µM) | 0.125 (≈ 0.261 µM) | 0.25 (≈ 0.523 µM) | 0.125 (≈ 0.261 µM)
O=C1CSc2ccc(-n3nc(CCCN[C@H]4Cn5c(=O)ccc6ccc(F)c4c65)oc3=O)cc2N1 [Example 19, (R)-9-fluoro-1-{3-[5-oxo-4-(3-oxo-3,4-dihydro-2H-benzo[1,4]-thiazin-6-yl)-4,5-dihydro-[1,3,4]oxadiazol-2-yl]-propylamino}-1,2-dihydro-pyrrolo[3,2,1-ij]quinolin-4-one] | ≤ 0.016 | 0.25 (≈ 0.507 µM) | 0.031 (≈ 0.0628 µM) | ≤ 0.016 | ≤ 0.016
O=C1COc2ccc(-n3nc(CCCN[C@H]4Cn5c(=O)ccc6ccc(F)c4c65)oc3=O)nc2N1 [Example 9, (R)-9-fluoro-1-{3-[5-oxo-4-(3-oxo-3,4-dihydro-2H-pyrido[3,2-b][1,4]oxazin-6-yl)-4,5-dihydro-[1,3,4]oxadiazol-2-yl]-propylamino}-1,2-dihydro-pyrrolo[3,2,1-ij]quinolin-4-one] | 1 (≈ 2.09 µM) | 0.5 (≈ 1.05 µM) | 0.125 (≈ 0.261 µM) | 0.25 (≈ 0.523 µM) | 0.125 (≈ 0.261 µM)
CCSc1ccc(-n2nc(CCCN[C@@H]3Cn4c(=O)ccc5ccc(F)c3c54)oc2=O)cc1 [Example 4, (S)-1-{3-[4-(4-ethylsulfanyl-phenyl)-5-oxo-4,5-dihydro-[1,3,4]oxadiazol-2-yl]-propylamino}-9-fluoro-1,2-dihydro-pyrrolo[3,2,1-ij]quinolin-4-one] | 8 (≈ 17.1 µM) | 0.5 (≈ 1.07 µM) | 0.5 (≈ 1.07 µM) | 0.5 (≈ 1.07 µM) | 0.063 (≈ 0.135 µM)
CC(C)c1ccc(-n2nc(CCCN[C@@H]3Cn4c(=O)ccc5ccc(F)c3c54)oc2=O)cc1 [Example 3, (S)-9-fluoro-1-{3-[4-(4-isopropyl-phenyl)-5-oxo-4,5-dihydro-[1,3,4]oxadiazol-2-yl]-propylamino}-1,2-dihydro-pyrrolo[3,2,1-ij]quinolin-4-one] | > 8 | 0.25 (≈ 0.557 µM) | 2 (≈ 4.46 µM) | 0.25 (≈ 0.557 µM) | 0.063 (≈ 0.14 µM)
O=C1COc2ccc(-n3nc(CCCN[C@H]4Cn5c(=O)cnc6ccc(F)c4c65)oc3=O)nc2N1 [Example 6, (R)-7-fluoro-6-{3-[5-oxo-4-(3-oxo-3,4-dihydro-2H-pyrido[3,2-b][1,4]oxazin-6-yl)-4,5-dihydro-[1,3,4]oxadiazol-2-yl]-propylamino}-5,6-dihydro-pyrrolo[1,2,3-de]quinoxalin-3-one] | 2 (≈ 4.17 µM) | 2 (≈ 4.17 µM) | 0.5 (≈ 1.04 µM) | 0.5 (≈ 1.04 µM) | 0.5 (≈ 1.04 µM)
O=C1COc2ccc(-n3nc(CCCN[C@@H]4Cn5c(=O)cnc6ccc(F)c4c65)oc3=O)nc2N1 [Example 7, (S)-7-fluoro-6-{3-[5-oxo-4-(3-oxo-3,4-dihydro-2H-pyrido[3,2-b][1,4]oxazin-6-yl)-4,5-dihydro-[1,3,4]oxadiazol-2-yl]-propylamino}-5,6-dihydro-pyrrolo[1,2,3-de]quinoxalin-3-one] | 2 (≈ 4.17 µM) | 2 (≈ 4.17 µM) | 0.25 (≈ 0.521 µM) | 0.5 (≈ 1.04 µM) | 0.25 (≈ 0.521 µM)
O=C1CSc2ccc(-n3nc(CCCN[C@@H]4Cn5c(=O)ccc6ccc(F)c4c65)oc3=O)nc2N1 [Example 17, (S)-9-fluoro-1-{3-[5-oxo-4-(3-oxo-3,4-dihydro-2H-pyrido[3,2-b][1,4]-thiazin-6-yl)-4,5-dihydro-[1,3,4]oxadiazol-2-yl]-propylamino}-1,2-dihydro-pyrrolo[3,2,1-ij]quinolin-4-one] | 0.25 (≈ 0.506 µM) | 0.25 (≈ 0.506 µM) | 0.031 (≈ 0.0627 µM) | 0.063 (≈ 0.127 µM) | 0.031 (≈ 0.0627 µM)
O=C1COc2ccc(-n3nc(CCCN[C@@H]4Cn5c(=O)ccc6ccc(F)c4c65)oc3=O)cc2N1 [Example 11, (S)-9-fluoro-1-{3-[5-oxo-4-(3-oxo-3,4-dihydro-2H-benzo[1,4]oxazin-6-yl)-4,5-dihydro-[1,3,4]oxadiazol-2-yl]-propylamino}-1,2-dihydro-pyrrolo[3,2,1-ij]quinolin-4-one] | 0.25 (≈ 0.524 µM) | 0.25 (≈ 0.524 µM) | ≤ 0.016 | 0.063 (≈ 0.132 µM) | 0.031 (≈ 0.0649 µM)
